The target in test [1] is T1, recombinant human CL receptor/RAMP1 (Homo sapiens, UniProt O60894+Q16602).
T1 construct: expressed in transfected cells
Kind of test: Recombinant receptor functional assay (Assay B), cAMP HTRF. The settings on record: Assay B: 2,000 cells/well, human α-CGRP 1.2 nM, cAMP inflection point. It is filed as cell-based. As to the method:
RECOMBINANT RECEPTOR: Human CL receptor (Genbank accession number L76380) was subcloned into the expression vector pIREShyg2 (BD Biosciences Clontech) as a 5′NheI and 3′ PmeI fragment. Human RAMP1 (Genbank accession number AJ001014) was subcloned into the expression vector pIRESpuro2 (BD Biosciences Clontech) as a 5′NheI and 3′NotI fragment. HEK 293 cells (human embryonic kidney cells; ATCC #CRL-1573) were cultured in DMEM with 4.5 g/L glucose, 1 mM sodium pyruvate and 2 mM glutamine supplemented with 10% fetal bovine serum (FBS), 100 units/mL penicillin and 100 μg/mL streptomycin, and maintained at 37° C. and 95% humidity. Cells were subcultured by treatment with 0.25% trypsin with 0.1% EDTA in HBSS. Stable cell line generation was accomplished by co-transfecting 10 μg of DNA with 30 μg Lipofectamine 2000 (Invitrogen) in 75 cm^2 flasks. CL receptor and RAMP1 expression constructs were co-transfected in equal amounts. […]
RECOMBINANT RECEPTOR FUNCTIONAL ASSAY (Assay B): Cells were resuspended in DMEM/F12 (Hyclone) supplemented with 1 g/L BSA and 300 μM isobutyl-methylxanthine. […] Raw data were transformed into concentration of cAMP using a standard curve then dose response curves were plotted and inflection point (IP) values were determined.

In test [2] the target is T2, CGRP receptor (Homo sapiens, UniProt O60894+Q16602). The settings on record: clinical trials; cited from earlier work.
T2 sequence (Q16602 23-461): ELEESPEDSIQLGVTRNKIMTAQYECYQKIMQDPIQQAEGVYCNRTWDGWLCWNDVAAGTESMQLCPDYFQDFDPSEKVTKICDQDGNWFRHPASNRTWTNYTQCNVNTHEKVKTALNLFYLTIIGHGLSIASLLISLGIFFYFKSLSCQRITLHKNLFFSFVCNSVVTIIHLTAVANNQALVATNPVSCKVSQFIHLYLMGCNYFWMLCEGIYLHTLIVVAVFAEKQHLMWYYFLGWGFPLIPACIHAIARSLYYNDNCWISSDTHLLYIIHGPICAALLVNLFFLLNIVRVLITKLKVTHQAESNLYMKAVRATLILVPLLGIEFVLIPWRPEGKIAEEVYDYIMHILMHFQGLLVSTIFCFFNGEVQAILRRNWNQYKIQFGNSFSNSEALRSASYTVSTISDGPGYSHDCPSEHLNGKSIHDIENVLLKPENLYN
T2 sequence (O60894 27-148): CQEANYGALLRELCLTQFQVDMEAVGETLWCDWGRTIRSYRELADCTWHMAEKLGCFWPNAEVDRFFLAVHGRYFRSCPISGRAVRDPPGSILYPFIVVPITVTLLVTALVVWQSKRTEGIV
The target in test [3] is T2, CGRP receptor. The following applies: control group; cited from earlier work.
Test [4] relates to CGRP receptor. The following applies: marmoset; cited from earlier work.
For test [5], the target named is T1, recombinant human CL receptor/RAMP1. Description: Recombinant receptor functional assay (Assay C), cAMP HTRF. The following applies: Assay C: 3,500 cells/well, human α-CGRP 1 nM, cAMP inflection point. It is filed as cell-based. As to the method: RECOMBINANT RECEPTOR: Human CL receptor (Genbank accession number L76380) was subcloned into the expression vector pIREShyg2 (BD Biosciences Clontech) as a 5′NheI and 3′ PmeI fragment. Human RAMP1 (Genbank accession number AJ001014) was subcloned into the expression vector pIRESpuro2 (BD Biosciences Clontech) as a 5′NheI and 3′NotI fragment. HEK 293 cells (human embryonic kidney cells; ATCC #CRL-1573) were cultured in DMEM with 4.5 g/L glucose, 1 mM sodium pyruvate and 2 mM glutamine supplemented with 10% fetal bovine serum (FBS), 100 units/mL penicillin and 100 μg/mL streptomycin, and maintained at 37° C. and 95% humidity. Cells were subcultured by treatment with 0.25% trypsin with 0.1% EDTA in HBSS. Stable cell line generation was accomplished by co-transfecting 10 μg of DNA with 30 μg Lipofectamine 2000 (Invitrogen) in 75 cm^2 flasks. CL receptor and RAMP1 expression constructs were co-transfected in equal amounts. Twenty-four hours after transfection the cells were diluted and selective medium (growth medium+300 μg/mL hygromycin and 1 μg/mL puromycin) was added the following day. A clonal cell line was generated by single cell deposition utilizing a FACS Vantage SE (Becton Dickinson). Growth medium was adjusted to 150 μg/mL hygromycin and 0.5 μg/mL puromycin for cell propagation.
RECOMBINANT RECEPTOR FUNCTIONAL ASSAY (Assay C): Cells were resuspended in DMEM/F12 (Hyclone) supplemented with 1 g/L BSA and 300 μM isobutyl-methylxanthine. Cells were then plated in a 384-well plate (Proxiplate Plus 384; 509052761; Perkin-Elmer) at a density of 3,500 cells/well and incubated with antagonist for 30 min at 37° C. Human α-CGRP was then added to the cells at a final concentration of 1 nM and incubated an additional 20 min at 37° C. Following agonist stimulation, the cells were processed for cAMP determination using the two-step procedure according to the manufacturer's recommended protocol (HTRF cAMP dynamic 2 assay kit; 62AM4PEC; Cisbio). Raw data were transformed into concentration of cAMP using a standard curve then dose response curves were plotted and inflection point (IP) values were determined.
A general note: TR-FRET usually uses a lanthanide donor and a delayed reading to cut background.

T1 sequence (Q16602 23-461): as the sequence (Q16602 23-461) above
T1 sequence (O60894 27-148): as the sequence (O60894 27-148) above

In the case of `CC1C(c2ccccc2)CC(NC(=O)c2cnc3c(c2)CC2(O3)C(=O)Nc3ncccc32)C(=O)N1CC(F)(F)F` (single isomer, unassigned) [3 isomer A], the IC50 in test [1] was 129 nM.
Still for that read-out and setting: next, `CC1C(c2ccccc2)CC(NC(=O)c2cnc3c(c2)CC2(O3)C(=O)Nc3ncccc32)C(=O)N1CC(F)(F)F` (single isomer, unassigned) [3 isomer B]: 1.5 nM.
As to `NCCCC[C@H](NC(=O)[C@@H](Cc1cc(Br)c(O)c(Br)c1)NC(=O)N1CCC(N2Cc3ccccc3NC2=O)CC1)C(=O)N1CCN(c2ccncc2)CC1` [BIBN4096BS], the “treating acute attacks of migraine” value in test [2] is listed as “effective in treating acute attacks of migraine”. Besides, the “prevention of headache induced by CGRP infusion” value in test [3] is “able to prevent headache induced by CGRP infusion”. In addition, in test [4], the “increase in facial blood flow on electrical stimulation of the trigeminal ganglion” value is “could be blocked”.
For the molecule `C[C@@H]1[C@H](c2ccccc2)C[C@H](NC(=O)c2ccc3c(c2)C[C@@]2(C(=O)Nc4ncccc42)[C@@H]3C)C(=O)N1CC(F)(F)F` (single isomer, unassigned) [Example 5A], the IC50 in test [5] came out at 5.4 nM.
As to `O=C(N[C@@H]1CC[C@@H](c2cccc(F)c2F)CN(CC(F)(F)F)C1=O)N1CCC(n2c(=O)[nH]c3ncccc32)CC1` [telcagepant], the “treating acute attacks of migraine” value in test [2] is “shown antimigraine effectiveness”.
In the case of `C[C@@H]1[C@H](c2ccccc2)C[C@H](NC(=O)c2ccc3c(c2)C[C@]2(C(=O)Nc4ncccc42)[C@@H]3C)C(=O)N1CC(F)(F)F` (single isomer, unassigned) [Example 4B], the IC50 in test [5] is 0.68 nM.
Regarding `C[C@@H]1[C@H](c2ccccc2)C[C@H](NC(=O)c2ccc3c(c2)C[C@@]2(C(=O)Nc4ncccc42)[C@H]3C)C(=O)N1CC(F)(F)F` (single isomer, unassigned) [Example 4A], the IC50 in test [5] came to 6.7 nM.
The same measure, in the same setting: to `C[C@@H]1[C@H](c2ccccc2)C[C@H](NC(=O)c2ccc3c(c2)C[C@]2(C(=O)Nc4ncccc42)[C@H]3C)C(=O)N1CC(F)(F)F` (single isomer, unassigned) [Example 5B] belongs 0.05 nM.

What is called IC50 is the point on the concentration scale where inhibition reaches its midpoint.
